# Test results published in patent publication EP4678638A1, “NEW E3 UBIQUITIN LIGASE LIGAND, PROTEIN DEGRADATION AGENT AND USE THEREOF” (priority 2023, dated 2024).
# Key:
# [1] = molecular target: T1, CDK6 (Homo sapiens, UniProt Q00534); test: Western blot degradation of CDK6 (MDA-MB-231 Cell); type: cell-based; conditions: Table D3
# T1 construct: evaluate the effects of the compounds of the present disclosure on the expression of target proteins in cells; endogenous in cells; host or cells: MDA-MB-231
# T1 sequence (Q00534 whole entry): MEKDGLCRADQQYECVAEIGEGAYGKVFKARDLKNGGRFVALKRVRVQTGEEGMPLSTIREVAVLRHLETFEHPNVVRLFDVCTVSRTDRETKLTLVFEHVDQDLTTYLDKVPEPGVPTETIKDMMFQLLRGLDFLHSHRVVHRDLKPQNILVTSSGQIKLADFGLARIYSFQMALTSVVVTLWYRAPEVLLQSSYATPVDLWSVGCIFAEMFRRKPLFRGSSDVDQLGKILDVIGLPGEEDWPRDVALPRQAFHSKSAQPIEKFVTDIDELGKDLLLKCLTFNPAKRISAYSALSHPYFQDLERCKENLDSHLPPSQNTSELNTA
# Protocol: (§1) Conventional Western blot assay was performed to evaluate the effects of the compounds of the present disclosure on the expression of target proteins in cells.
# (§2) (1) Cell Seeding and Protein Harvesting: The selected cells were processed according to the cell seeding procedure and protein harvesting procedure in Table III-2. Table III-2 Cell Seeding and Protein Harvesting Procedures
# (§3) (2) To the collected supernatant, 5X SDS sample loading buffer was added, followed by denaturation at 95°C for 5 minutes. The denatured samples were then separated by SDS-PAGE electrophoresis on a polyacrylamide gel. Proteins were transferred to a nitrocellulose membrane (0.45 µm NC membrane), blocked with blocking buffer at room temperature for 1 hour, and subjected to antibody incubation and development procedures according to the antibody manufacturer's instructions (Cell Signaling Technology).
# (§4) Half-Maximal Degradation Concentration value (the drug concentration required for degrading proteins by 50%, abbreviated as DC50) reads method: comparing the grayscale values of Western blot bands from drug-treated samples with those from blank DMSO-treated controls, and identifying the drug concentration range at which the grayscale value is half that of the DMSO-treated control bands.
# (§5) DC50 values can be calculated using ImageJ software to measure grayscale values of Western blot bands from drug-treated samples. The concentration-response curve is fitted to estimate the drug concentration corresponding to half the grayscale value.
# (§6) Target protein remaining (%) refers to the percentage of target protein remaining in hPBMC cells after treatment with protein degrader compounds.
# (§7) Calculation method for target protein remaining (%): Use ImageJ software to measure grayscale values of Western blot bands from drug (protein degrader)-treated samples. The grayscale value of drug-treated bands is divided by that of internal control protein bands, and the resulting quotient is normalized to obtain the relative percentage of remaining target protein after protein degrader treatment.
# (§8) Target protein degradation rate (%) = 100% - target protein remaining (%).
# [2] = molecular target: T2, CDK4 (Homo sapiens, UniProt P11802); test: Western blot degradation of CDK4 (MDA-MB-231 Cell); type: cell-based; conditions: Table D3
# T2 construct: evaluate the effects of the compounds of the present disclosure on the expression of target proteins in cells; endogenous in cells; host or cells: MDA-MB-231
# T2 sequence (P11802 whole entry): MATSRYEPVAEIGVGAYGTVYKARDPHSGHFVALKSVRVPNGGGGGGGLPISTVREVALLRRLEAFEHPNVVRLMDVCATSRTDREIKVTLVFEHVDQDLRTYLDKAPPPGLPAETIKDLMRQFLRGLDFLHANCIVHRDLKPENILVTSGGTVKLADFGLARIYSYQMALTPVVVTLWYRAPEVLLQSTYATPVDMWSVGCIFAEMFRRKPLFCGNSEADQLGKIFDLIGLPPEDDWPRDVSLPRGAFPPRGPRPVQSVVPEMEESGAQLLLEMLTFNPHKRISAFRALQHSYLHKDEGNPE
# Protocol: as §1, §2, §3, §4, §5, §6, §7, §8
Structure (SMILES),Degradation of substrate protein CDK6 (substrate protein remaining %) [1],Degradation of substrate protein CDK4 (substrate protein remaining %) [2]
"CC(=O)c1c(C)c2cnc(Nc3ccc(N4CCN(Cc5ccc(N6CCC(=O)NC6=O)nc5)CC4)cn3)nc2n(C2CCCC2)c1=O [GT-06579, 1-(5-((4-(6-((6-acetyl-8-cyclopentyl-5-methyl-7-oxo-7,8-dihydropyrido[2,3-d]pyrimidin-2-yl)amino)pyridin-3-yl)piperazin-1-yl)methyl)pyridin-2-yl)dihydropyrimidine-2,4(1H,3H)-dione]",A (A is defined as 0% ≤ substrate protein remaining % ≤ 80%),B (B is defined as substrate protein remaining % > 80%)
"CN(C)C(=O)c1cc2cnc(Nc3ccc(N4CCN(Cc5ccnc(C6CCC(=O)NC6=O)c5)CC4)cn3)nc2n1C1CCCC1 (stereo not shown) [GT-07478, 7-cyclopentyl-2-((5-(4-((2-(2,6-dioxopiperidin-3-yl)pyridin-4-yl)methyl)piperazin-1-yl)pyridin-2-yl)amino)-N,N-dimethyl-7H-pyrrolo[2,3-d]pyrimidine-6-carboxamide]",A (A is defined as 0% ≤ substrate protein remaining % ≤ 80%),A (A is defined as 0% ≤ substrate protein remaining % ≤ 80%)
"CC(=O)c1c(C)c2cnc(Nc3ccc(N4CCN(Cc5ccnc(N6CCC(=O)NC6=O)c5)CC4)cn3)nc2n(C2CCCC2)c1=O [GT-07481, 1-(4-((4-(6-((6-acetyl-8-cyclopentyl-5-methyl-7-oxo-7,8-dihydropyrido[2,3-d]pyrimidin-2-yl)amino)pyridin-3-yl)piperazin-1-yl)methyl)pyridin-2-yl)dihydropyrimidine-2,4(1H,3H)-dione]",A (A is defined as 0% ≤ substrate protein remaining % ≤ 80%),A (A is defined as 0% ≤ substrate protein remaining % ≤ 80%)
"CN(C)C(=O)c1cc2cnc(Nc3ccc(N4CCN(Cc5ccc(C6CCC(=O)NC6=O)cc5)CC4)cn3)nc2n1C1CCCC1 (stereo not shown) [GT-06339, 7-cyclopentyl-2-((5-(4-(4-(2,6-dioxopiperidin-3-yl)benzyl)piperazin-1-yl)pyridin-2-yl)amino)-N,N-dimethyl-7H-pyrrolo[2,3-d]pyrimidine-6-carboxamide]",A (A is defined as 0% ≤ substrate protein remaining % ≤ 80%),A (A is defined as 0% ≤ substrate protein remaining % ≤ 80%)
"CN(C)C(=O)c1cc2cnc(Nc3ccc(N4CCC(N(C)Cc5cccc(N6CCC(=O)NC6=O)c5)CC4)cn3)nc2n1C1CCCC1 [GT-06492, 7-cyclopentyl-2-((5-(4-((3-(2,4-dioxotetrahydropyrimidin-1(2H)-yl)benzyl)(methyl)amino)piperidin-1-yl)pyridin-2-yl)amino)-N,N-dimethyl-7H-pyrrolo[2,3-d]pyrimidine-6-carboxamide]",A (A is defined as 0% ≤ substrate protein remaining % ≤ 80%),B (B is defined as substrate protein remaining % > 80%)
"CN(C)C(=O)c1cc2cnc(Nc3ccc(N4CCN(Cc5cccc(NC6CCC(=O)NC6=O)c5)CC4)cn3)nc2n1C1CCCC1 (stereo not shown) [GT-06344, 7-cyclopentyl-2-((5-(4-(3-((2,6-dioxopiperidin-3-yl)amino)benzyl)piperazin-1-yl)pyridin-2-yl)amino)-N,N-dimethyl-7H-pyrrolo[2,3-d]pyrimidine-6-carboxamide]",A (A is defined as 0% ≤ substrate protein remaining % ≤ 80%),B (B is defined as substrate protein remaining % > 80%)
"CN(C)C(=O)c1cc2cnc(Nc3ccc(N4CCN(Cc5ccc(N6CCC(=O)NC6=O)cc5)CC4)cn3)nc2n1C1CCCC1 [GT-06340, 7-cyclopentyl-2-((5-(4-(4-(2,4-dioxotetrahydropyrimidin-1(2H)-yl)benzyl)piperazin-1-yl)pyridin-2-yl)amino)-N,N-dimethyl-7H-pyrrolo[2,3-d]pyrimidine-6-carboxamide]",A (A is defined as 0% ≤ substrate protein remaining % ≤ 80%),A (A is defined as 0% ≤ substrate protein remaining % ≤ 80%)
"CC(=O)c1c(C)c2cnc(Nc3ccc(N4CCN(Cc5ccc(N6CCC(=O)NC6=O)cc5)CC4)cn3)nc2n(C2CCCC2)c1=O [GT-06576, 1-(4-((4-(6-((6-acetyl-8-cyclopentyl-5-methyl-7-oxo-7,8-dihydropyrido[2,3-d]pyrimidin-2-yl)amino)pyridin-3-yl)piperazin-1-yl)methyl)phenyl)dihydropyr imidine-2,4(1H,3H)-dione]",A (A is defined as 0% ≤ substrate protein remaining % ≤ 80%),A (A is defined as 0% ≤ substrate protein remaining % ≤ 80%)
"CC(=O)c1c(C)c2cnc(Nc3ccc(N4CCN(Cc5cc(N6CCC(=O)NC6=O)ncc5F)CC4)cn3)nc2n(C2CCCC2)c1=O [GT-07480, 1-(4-((4-(6-((6-acetyl-8-cyclopentyl-5-methyl-7-oxo-7,8-dihydropyrido[2,3-d]pyrimidin-2-yl)amino)pyridin-3-yl)piperazin-1-yl)methyl)-5-fluoropyridin-2-yl)dihydropyrimidine-2,4(1H,3H)-dione]",A (A is defined as 0% ≤ substrate protein remaining % ≤ 80%),A (A is defined as 0% ≤ substrate protein remaining % ≤ 80%)
"CC(=O)c1c(C)c2cnc(Nc3ccc(N4CCN(Cc5cnc(N6CCC(=O)NC6=O)cn5)CC4)cn3)nc2n(C2CCCC2)c1=O [GT-07827, 1-(5-((4-(6-((6-acetyl-8-cyclopentyl-5-methyl-7-oxo-7,8-dihydropyrido[2,3-d]pyrimidin-2-yl)amino)pyridin-3-yl)piperazin-1-yl)methyl)pyrazin-2-yl)dihydropyrimidine-2,4(1H,3H)-dione]",A (A is defined as 0% ≤ substrate protein remaining % ≤ 80%),A (A is defined as 0% ≤ substrate protein remaining % ≤ 80%)
"CN(C)C(=O)c1cc2cnc(Nc3ccc(N4CCN(Cc5cccc(N6CCC(=O)NC6=O)c5)CC4)cn3)nc2n1C1CCCC1 [GT-06341, 7-cyclopentyl-2-((5-(4-(3-(2,4-dioxotetrahydropyrimidin-1(2H)-yl)benzyl)piperazin-1-yl)pyridin-2-yl)amino)-N,N-dimethyl-7H-pyrrolo[2,3-d]pyrimidine-6-carboxamide]",A (A is defined as 0% ≤ substrate protein remaining % ≤ 80%),A (A is defined as 0% ≤ substrate protein remaining % ≤ 80%)
"CN(C)C(=O)c1cc2cnc(Nc3ccc(N4CCN(Cc5cc(N6CCC(=O)NC6=O)ncc5F)CC4)cn3)nc2n1C1CCCC1 [GT-07474, 7-cyclopentyl-2-((5-(4-((2-(2,4-dioxotetrahydropyrimidin-1(2H)-yl)-5-fluoropyridin-4-yl)methyl)piperazin-1-yl)pyridin-2-yl)amino)-N,N-dimethyl-7H-pyrrolo[2,3-d]pyrimidine-6-carboxamide]",A (A is defined as 0% ≤ substrate protein remaining % ≤ 80%),A (A is defined as 0% ≤ substrate protein remaining % ≤ 80%)
"CN(C)C(=O)c1cc2cnc(Nc3ccc(N4CCC(N(C)Cc5ccc(N6CCC(=O)NC6=O)cc5)CC4)cn3)nc2n1C1CCCC1 [GT-06491, 7-cyclopentyl-2-((5-(4-((4-(2,4-dioxotetrahydropyrimidin-1(2H)-yl)benzyl)(methyl)amino)piperidin-1-yl)pyridin-2-yl)amino)-N,N-dimethyl-7H-pyrrolo[2,3-d]pyrimidine-6-carboxamide]",A (A is defined as 0% ≤ substrate protein remaining % ≤ 80%),B (B is defined as substrate protein remaining % > 80%)
"CN(C)C(=O)c1cc2cnc(Nc3ccc(N4CCN(Cc5cnc(N6CCC(=O)NC6=O)cn5)CC4)cn3)nc2n1C1CCCC1 [GT-07831, 7-cyclopentyl-2-((5-(4-((5-(2,4-dioxotetrahydropyrimidin-1(2H)-yl)pyrazin-2-yl)methyl)piperazin-1-yl)pyridin-2-yl)amino)-N,N-dimethyl-7H-pyrrolo[2,3-d]pyrimidine-6-carboxamide]",A (A is defined as 0% ≤ substrate protein remaining % ≤ 80%),A (A is defined as 0% ≤ substrate protein remaining % ≤ 80%)
